Results on six molecules are retold here after patent publication US10227349B2, “Pyrazolo[1,5-a]pyrimidine compound” (Eisai R&D Management Co., Ltd., priority 2016, dated 2019).

The target of test [1] is T1, PAR2 (Homo sapiens, UniProt P55085).
T1 construct: Human embryonic kidney cell line HEK293 cells cultured using DMEM culture medium; endogenous in cells; host or cells: HEK293
T1 sequence (P55085 26-397): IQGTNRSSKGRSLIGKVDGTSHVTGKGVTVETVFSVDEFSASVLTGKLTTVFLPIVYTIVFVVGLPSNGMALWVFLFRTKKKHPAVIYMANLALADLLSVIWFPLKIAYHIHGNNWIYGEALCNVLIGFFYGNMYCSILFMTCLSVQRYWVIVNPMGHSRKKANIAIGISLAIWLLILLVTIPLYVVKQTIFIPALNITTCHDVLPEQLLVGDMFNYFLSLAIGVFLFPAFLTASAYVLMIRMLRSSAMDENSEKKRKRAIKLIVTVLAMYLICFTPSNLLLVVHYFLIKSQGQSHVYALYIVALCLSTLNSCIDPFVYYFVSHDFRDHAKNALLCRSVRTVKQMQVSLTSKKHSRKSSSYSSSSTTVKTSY
Description: Intracellular calcium concentration measurement (trypsin-induced calcium elevation, FDSS6000). The conditions noted are these: HEK293 cells, trypsin 5 U/mL as agonist, test compound added 30 min before measurement; read-out: Inhibitory activity on intracellular calcium elevation (IC50 (nM)). The test is classed as cell-based. From the text:
In the present specification, examples of the measurement method for the PAR2 inhibitory activity include measurement method for a concentration elevation of intracellular calcium; measurement method for a production increase of intracellular inositol trisphosphate; measurement method for an increase in intracellular protein phosphorylation by protein kinase C and MAP kinase; and measurement method for a production amount or a release amount of inflammation-related physiologically active substances such as cytokine, chemokine, prostaglandin and nitric monoxide. Examples of the measurement method for an elevation of intracellular calcium concentration include a method wherein a calcium-binding fluorescent probe is allowed to be incorporated in advance into a cultured cell line or an animal-derived isolated cell having PAR2, or a cell in which PAR2 is artificially expressed, a protease having the PAR2 activity function such as trypsin or a PAR2 agonist (synthetic peptides such as SLIGKV-NH2 (SEQ ID NO: 1) and SLIGRL-NH2 (SEQ ID NO: 2) is added to activate PAR2 whereby fluctuating intracellular calcium concentrations are detected as changes in the fluorescent signal. Alternatively, it is also possible to measure an intracellular calcium concentration by determining the quantity of a fluorescence intensity produced in proportion to the calcium concentration using a calcium-binding luminescent protein overexpressing cell line such as Aequorin. Specifically, examples include the methods described in Test Examples of the present specification.
Human embryonic kidney cell line HEK293 cells cultured using DMEM culture medium (Invitrogen) with 3% fetal bovine serum (3% FBS)-added was prepared to have a concentration of 2×10^5 cells/mL, and plated in a type I collagen-coated 384-well black plate (clear bottom) (Greiner) so as to be 25 μL/well and cultured in a CO2 incubator overnight. FLIPR Calcium Assay Kit (Molecular Devices) prepared with Hanks-20 mM Hepes buffer (pH 7.4) was added to the cells so as to be 25 μL/well and cultured in the CO2 incubator for 1 hour. Trypsin (SIGMA-ALDRICH, catalog number: T8816, Enzyme Commission Number 3.4.21.4) prepared so as to be 5 U/mL as final concentration (BAEE unit) with Hanks-20 mM Hepes buffer (pH 7.4) was added to a 384-well deep well polypropylene plate (Greiner) to be an agonist reagent plate. Thirty minutes before the measurement using FDSS6000 (Hamamatsu Photonics K.K.), a test compound prepared with Hanks-20 mM Hepes buffer (pH 7.4) was added to the cell so as to be 8 μL/well. The cell plate to which the test compound was added and the reagent plate were set on FDSS6000, 22 μL/well of the agonist solution was added from the reagent plate, and the change in intracellular calcium concentration was measured with a CCD camera. The measurement was carried out at 37° C. for 120 seconds and the addition of reagent from the reagent plate to the cell plate was carried out using a built-in 384-well automatic dispenser of FDSS6000.
Note that Reference Example 1 in Table 3 is the compound represented by formula (XIX) synthesized in the above Reference Example 1 (hereinafter, also referred to as Compound (XIX)). Additionally, the “Comparative Compound” in Table 3 is the compound described in Patent Literature 4 represented by the following formula (XX) (I-343; hereinafter, also referred to as Compound (XX)).

Test [2] addresses T2, PAR2 (Mus musculus, UniProt P55086).
T2 construct: orally administered to C57BL/6J male mice (Charles River), 6-10 weeks of age; tissue Charles River; host or cells: Living C57BL/6J male mice (in vivo; saliva secretion)
T2 sequence (P55086 26-399): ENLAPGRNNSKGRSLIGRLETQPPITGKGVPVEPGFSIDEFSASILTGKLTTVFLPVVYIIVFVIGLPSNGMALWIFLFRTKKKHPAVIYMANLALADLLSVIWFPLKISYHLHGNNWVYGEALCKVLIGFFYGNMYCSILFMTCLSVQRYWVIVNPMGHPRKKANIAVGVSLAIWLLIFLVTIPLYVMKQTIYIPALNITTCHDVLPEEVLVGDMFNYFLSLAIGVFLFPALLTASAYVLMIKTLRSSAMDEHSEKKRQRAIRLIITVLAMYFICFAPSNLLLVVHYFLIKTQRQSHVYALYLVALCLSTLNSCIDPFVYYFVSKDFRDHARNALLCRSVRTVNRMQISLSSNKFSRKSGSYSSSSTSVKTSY
The experiment in a line: Measurement of PAR2 agonist (SLIGRL-NH2)-induced salivation in mouse. In kind it is in vivo. The settings on record: C57BL/6J male mice, 0.3 mg/mL solution 10 mL/kg orally, 60 min before SLIGRL-NH2 i.p., saliva collected 10 min. The procedure: The test compound was added to a 0.5% carboxymethyl cellulose solution to which 2% DMSO was added, so as to have the final concentration of 0.3 mg/mL, thereby preparing an administration solution containing the test compound. The administration solution containing the test compound (10 mL/kg) was orally administered to C57BL/6J male mice (Charles River), 6-10 weeks of age, using an oral sonde and a syringe. Forty-five minutes after the administration of the test compound, 10 mL/kg of a 20% (w/v) urethane solution was intraperitoneal administered to the mice which were then anesthetized. Sixty minutes after the administration of the test compound, 10 mL/kg of a 0.1 mg/mL SLIGRL-NH2 (SEQ ID NO: 2) solution was intraperitoneally administered as the PAR2 agonist and a cotton ball was immediately placed in the oral cavity of the mouse to collect the saliva. Ten minutes after the administration of the PAR2 agonist, the cotton ball was removed and weighed to measure the amount of saliva secreted.
Note that Reference Example 1 in Table 4 is Compound (XIX). Additionally, Comparative Compound in Table 4 is Compound (XX).

Test [3] relates to OXA-induced enteritis in BALB/c male mice. Description: Model mouse for enteritis (OXA-induced, bowel length). In kind it is in vivo. The conditions noted are these: po, 48 h, 0.1 mg/mL solution 10 mL/kg orally twice (1 hour before and day after OXA induction), length of colon and rectum two days after induction, read-out: Inhibitory activity on bowel shortening (%). The protocol:
Generally, the bowel length is known to be shorter during enteritis (Maxwell, J. R. et al. Curr. Protoc. Pharmacol. Chapter 5: Unit 5.58, 2009). The bowel length in an enteritis model was measured to evaluate the effect of the test compound.
The test compound was added to a 0.5% carboxymethyl cellulose solution so as to have a final concentration of 0.1 mg/mL, thereby preparing an administration solution containing the test compound. Hapten used was 4-ethoxymethylene-2-phenyloxazol-5-one (OXA, SIGMA-ALDRICH).
One hundred (100) μL of a solution of OXA diluted to 0.3% with ethanol was applied to the shaved abdominal region of BALB/c male mice (Charles River), 6-10 weeks of age, to create the sensitization. Five days after the sensitization, OXA was intrarectally administered to induce an enteritis reaction. More specifically, a syringe equipped with a sonde for oral administration was inserted into the anus of the mouse anesthetized by the inhalation of isoflurane at a concentration of 4-5% and 50 μL of the OXA solution adjusted to 1% with a solvent of 50% ethanol/50% distilled water was administered into the rectum.
One hour before and on the day following the induction of enteritis, the administration solution containing the test compound (10 mL/kg) was orally administered twice in total to the mice. Two days after the induction of enteritis, the mice were euthanized by cervical dislocation and subsequently the cecum to the anus was collected to measure the combined length of the colon and the rectum using a ruler, thereby evaluating the action of the test compound.
Note that Reference Example 1 in Table 6 is Compound (XIX).

With `COc1cccc(C)c1N(C)c1cc(-c2cc(F)c(F)c(F)c2)nc2cc(C(=O)N3CC[C@@H](CC(=O)O)[C@@H](F)C3)nn12` (relative stereo) [Example 5, 2-((3R*,4S*)-3-fluoro-1-(7-((2-methoxy-6-methylphenyl)(methyl)amino)-5-(3,4,5-trifluorophenyl)pyrazolo[1,5-a]pyrimidine-2-carbonyl)piperidin-4-yl)acetic acid], the IC50 on PAR2 [1] was determined as 2.45 nM. For the same molecule, the “Inhibitory activity on the PAR2-dependent saliva secretion (%)” value (shortened to “Inhibitory activity … (%)”) at PAR2 [2] amounted to 94.5%. For the same molecule, in test [3], the inhibition in vivo at 100 µg/mL, 1 mg/kg worked out at 106%.

As to `Cc1cccc(C)c1N(C)c1cc(-c2cc(F)c(F)c(F)c2)nc2cc(C(=O)N3CC[C@@H](CC(=O)O)[C@@H](F)C3)nn12` (relative stereo) [Example 1, 2-((3R*,4S*)-1-(7-((2,6-dimethylphenyl)(methyl)amino)-5-(3,4,5-trifluorophenyl)pyrazolo[1,5-a]pyrimidine-2-carbonyl)-3-fluoropiperidin-4-yl)acetic acid], the IC50 on PAR2 [1] is 2.57 nM. In addition, the “Inhibitory activity … (%)” value on PAR2 [2] worked out at 91.5%. The inhibition in vivo at 100 µg/mL, 1 mg/kg in test [3] was determined as 60.4%.

Turning to `CN(c1c(F)cccc1Cl)c1cc(-c2cc(F)c(F)c(F)c2)nc2cc(C(=O)N3CC[C@@H](CC(=O)O)[C@@H](F)C3)nn12` (relative stereo) [Example 13, 2-((3R*,4S*)-1-(7-((2-chloro-6-fluorophenyl)(methyl)amino)-5-(3,4,5-trifluorophenyl)pyrazolo[1,5-a]pyrimidine-2-carbonyl)-3-fluoropiperidin-4-yl)acetic acid], the IC50 on PAR2 [1] was 4 nM. Also, the “Inhibitory activity … (%)” value at PAR2 [2] worked out at 95.0%. In addition, the inhibition in vivo at 100 µg/mL, 1 mg/kg in test [3] came out at 62.2%.

Regarding `CC(C)CN(c1cc(-c2cc(F)c(F)c(F)c2)nc2cc(C(=O)N3C[C@@H]4[C@@H](CC(=O)O)[C@@H]4C3)nn12)[C@@H](C)c1ccccc1` [Example 16, 2-((1α,5α,6α)-3-(7-(isobutyl((S)-1-phenylethyl)amino)-5-(3,4,5-trifluorophenyl)pyrazolo[1,5-a]pyrimidine-2-carbonyl)-3-azabicyclo[3.1.0]hexan-6-yl)acetic acid], the IC50 on PAR2 [1] turned out to be 26.3 nM. The “Inhibitory activity … (%)” value at PAR2 [2] is given as 98.2%. The inhibition in vivo at 100 µg/mL, 1 mg/kg in test [3] worked out at 74.5%.

Consider `CO[C@H]1CN(C(=O)c2cc3nc(-c4cc(F)c(F)c(F)c4)cc(N(C)c4c(C)cccc4C)n3n2)CC[C@H]1CC(=O)O` (relative stereo) [Example 2, 2-((3R*,4S*)-1-(7-((2,6-dimethylphenyl)(methyl)amino)-5-(3,4,5-trifluorophenyl)pyrazolo[1,5-a]pyrimidine-2-carbonyl)-3-methoxypiperidin-4-yl)acetic acid], for which the IC50 at PAR2 [1] was 7.54 nM. Besides, at PAR2 [2], the “Inhibitory activity … (%)” value is reported as 91.3%. Further, the inhibition in vivo at 100 µg/mL, 1 mg/kg in test [3] is 69.7%.

With `COc1cccc(C)c1N(C)c1cc(-c2cc(F)c(F)c(F)c2)nc2cc(C(=O)N3CC[C@@H](CC(=O)O)[C@@H](OC)C3)nn12` (relative stereo) [Example 6, 2-((3R*,4S*)-3-methoxy-1-(7-((2-methoxy-6-methylphenyl)(methyl)amino)-5-(3,4,5-trifluorophenyl)pyrazolo[1,5-a]pyrimidine-2-carbonyl)piperidin-4-yl)acetic acid], the IC50 at PAR2 [1] was determined as 2.79 nM. In addition, the “Inhibitory activity … (%)” value on PAR2 [2] is 97.0%. Further, the inhibition in vivo at 100 µg/mL, 1 mg/kg in test [3] is 79.6%.
